The species entered for assay [1] is Mus musculus. Put plainly: Selectivity ratio of Ki for delta opioid receptor in CD1 mouse brain membranes to Ki for mu opioid receptor in CD1 mouse brain membranes. The format is cell membranes.
The target of a further assay is Mu-type opioid receptor (Mus musculus, UniProt P42866). Description: Displacement of [3H]DAMGO from mu opioid receptor in CD1 mouse brain membranes after 1 hr by liquid scintillation counting. Format: cell membranes, Membrane. In general terms: In a radioligand displacement assay an active substance lowers the binding of a labelled ligand.
Another assay deals with Cannabinoid receptor 2 (Mus musculus, UniProt P47936). Description: Displacement of [3H]-CP-55940 from cannabinoid CB2 receptor in CD1 mouse spleen membranes after 1 hr by liquid scintillation counting. The format is cell membranes, Membrane.
The target of the next assay is Cannabinoid receptor 1 (Mus musculus, UniProt P47746). Put plainly: Displacement of [3H]-CP-55940 from cannabinoid CB1 receptor in CD1 mouse brain membranes after 1 hr by liquid scintillation counting. The format is cell membranes, Membrane.
Assay [2] is filed under the species Mus musculus. Description: Selectivity ratio of Ki for cannabinoid CB1 receptor in CD1 mouse brain membranes to Ki for cannabinoid CB2 receptor in CD1 mouse spleen membranes. Format: cell membranes.
Assay [3] deals with Delta-type opioid receptor (Mus musculus, UniProt P32300). Put plainly: Displacement of [3H]DPDPE from delta opioid receptor in CD1 mouse brain membranes after 1 hr by liquid scintillation counting. Format: cell membranes, Membrane.

For `CCCCCCCCC/C=C/C=C/C(=O)N1CCCCC1`, the Ratio Ki came to 1.13 in the assay listed under Mus musculus [1] and 0.28 in the assay filed under Mus musculus [2]. Besides, the Ki – broadly, a dissociation constant, usually derived from enzyme kinetics or from competition with a known ligand – stood at 5.75 µM at Mu-type opioid receptor, 24 µM on Cannabinoid receptor 2, 6.7 µM on Cannabinoid receptor 1 and 6.5 µM in assay [3].
As for `COc1cc([C@@H]2Oc3c(OC)cc(/C=C/C=O)cc3[C@H]2COC(=O)CC(C)C)ccc1O`, the Ratio Ki amounted to 0.42 in the assay filed under Mus musculus [1] and 0.64 in the assay filed under Mus musculus [2]. Moreover, the Ki at Mu-type opioid receptor worked out at 9 µM; on Cannabinoid receptor 2 it was 4.2 µM; on Cannabinoid receptor 1, 2.7 µM; in assay [3] it was 3.8 µM.
On to `C=CC1OC1/C=C/C#CC#CC#CC` (centres undefined), for which the inhibitory constant (Ki) (at Mu-type opioid receptor; on Cannabinoid receptor 2; at Cannabinoid receptor 1; in assay [3]) was > 50 µM each time.
`O=C(/C=C/C=C/C=C/c1cccs1)N1C=CCCC1`: the Ratio Ki in the assay filed under Mus musculus [1] is 0.4. Also, the Ki at Mu-type opioid receptor was 29 µM; on Cannabinoid receptor 2, 13.5 µM; at Cannabinoid receptor 1, > 50 µM; in assay [3], 11.5 µM.
Regarding `CCCCC/C=C\CC/C=C/C=C/C(=O)NCC(C)C`, the Ratio Ki was found to be 1.03 in the assay filed under Mus musculus [1] and 2.18 in the assay listed under Mus musculus [2]. The inhibition constant Ki at Mu-type opioid receptor is 7.5 µM; on Cannabinoid receptor 2, 0.55 µM; at Cannabinoid receptor 1 it was 1.2 µM; in assay [3], 7.7 µM.
`O=C(/C=C/C=C/C=C/c1cccs1)N1CCCCC1`: the Ratio Ki is 0.63 in the assay filed under Mus musculus [1] and 3.3 in the assay filed under Mus musculus [2]. For the same molecule, the Ki turned out to be 12.8 µM at Mu-type opioid receptor, 1.24 µM at Cannabinoid receptor 2, 4.1 µM at Cannabinoid receptor 1 and 8 µM in assay [3].
Consider `CCCCCCC/C=C/C=C/C(=O)NCC(C)C`, for which the Ratio Ki is 5.24 in the assay filed under Mus musculus [1] and 2.89 in the assay listed under Mus musculus [2]. Besides, the Ki on Mu-type opioid receptor worked out at 8.2 µM; on Cannabinoid receptor 2, 0.9 µM; on Cannabinoid receptor 1, 2.6 µM; in assay [3] it was 43 µM.
As for `CC(C)CCNC(=O)/C=C/C=C/C=C/c1cccs1`, the Ratio Ki came out at 3.27 in the assay listed under Mus musculus [1] and 0.44 in the assay filed under Mus musculus [2]. The Ki on Mu-type opioid receptor turned out to be 8.1 µM; on Cannabinoid receptor 2 it was 5 µM; on Cannabinoid receptor 1, 2.2 µM; in assay [3], 26.5 µM.
Regarding `CC(C)CC(=O)OC/C=C\CCNC(=O)/C=C/C=C/C=C/c1cccs1`, the Ratio Ki in the assay filed under Mus musculus [1] was 0.27; in the assay filed under Mus musculus [2], 0.55. The Ki turned out to be 41.5 µM on Mu-type opioid receptor, 10.2 µM at Cannabinoid receptor 2, 5.6 µM on Cannabinoid receptor 1 and 11 µM in assay [3].
Take `CCCCCCCCC/C=C/C=C/C(=O)NCC(C)C`: the Ratio Ki in the assay listed under Mus musculus [1] was 0.44; in the assay listed under Mus musculus [2] it was 1.2. For the same molecule, the Ki came out at 51 µM at Mu-type opioid receptor, 1.17 µM on Cannabinoid receptor 2, 1.4 µM on Cannabinoid receptor 1 and 22.5 µM in assay [3].
For `CCCCC/C=C\CC/C=C/C=C/C(=O)N1CCCCC1`, the Ratio Ki is 0.51 in the assay filed under Mus musculus [1] and 5 in the assay filed under Mus musculus [2]. Besides, the Ki was 7.4 µM on Mu-type opioid receptor, 0.16 µM on Cannabinoid receptor 2, 0.8 µM at Cannabinoid receptor 1 and 3.8 µM in assay [3].
As to `CC(C)CNC(=O)/C=C/C=C/C=C/c1cccs1`, the Ratio Ki in the assay listed under Mus musculus [1] came to 0.49; in the assay filed under Mus musculus [2] it was 1.07. The Ki at Mu-type opioid receptor was determined as 52 µM; on Cannabinoid receptor 2 it was 8.25 µM; at Cannabinoid receptor 1, 8.8 µM; in assay [3], 25.5 µM.

For the origin of these results see ChEMBL document CHEMBL2440099, “N-Alkyl dien- and trienamides from the roots of Otanthus maritimus with binding affinity for opioid and cannabinoid receptors” (Bioorg Med Chem, 2013).
